Source: PubChem BioAssay AID256 (DTP/NCI, 2004)
“And” between values parts separate entries of the source, which are not always exact repeats. Equal values may be shown once. Inconclusive results and toxic doses are left out. How the source made its calls: active means survival T/C of 150% or more; inactive means T/C below 125% in these data.

Test system: CD2F1 mice, L1210 leukemia ip, survival T/C
Test: NCI In Vivo Anticancer Drug Screen. Data for tumor model L1210 Leukemia (intraperitoneal) in CD2F1 (CDF1) mice
Conditions: higher = longer survival
Outline: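 Mice carrying a transplanted tumor received test compound or vehicle alone. The value is the measurement in the treated group divided by that in the vehicle-treated control group.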

[1] = endpoint: mean survival time, dose: 100.0 mg/kg/injection, schedule: Q04DX003 (ip), vehicle: saline with Tween-80
[2] = endpoint: mean survival time, dose: 100.0 mg/kg/injection, schedule: Q01DX009 (ip), vehicle: saline with Tween-80
[3] = endpoint: mean survival time, dose: 200.0 mg/kg/injection, schedule: Q01DX009 (ip), vehicle: saline with Tween-80
[4] = endpoint: mean survival time, dose: 400.0 mg/kg/injection, schedule: Q01DX009 (ip), vehicle: saline with Tween-80
[5] = endpoint: mean survival time, dose: 25.0 mg/kg/injection, schedule: Q01DX009 (ip), vehicle: saline with Tween-80
[6] = endpoint: mean survival time, dose: 50.0 mg/kg/injection, schedule: Q01DX009 (ip), vehicle: saline with Tween-80
[7] = endpoint: mean survival time, dose: 100.0 mg/kg/injection, schedule: Q01DX001 (ip), vehicle: saline with Tween-80
[8] = endpoint: mean survival time, dose: 200.0 mg/kg/injection, schedule: Q04DX003 (ip), vehicle: saline with Tween-80
[9] = endpoint: mean survival time, dose: 400.0 mg/kg/injection, schedule: Q04DX003 (ip), vehicle: saline with Tween-80
[10] = endpoint: mean survival time, dose: 100.0 mg/kg/injection, schedule: Q04DX002 (ip), vehicle: saline with Tween-80
[11] = endpoint: mean survival time, dose: 200.0 mg/kg/injection, schedule: Q04DX002 (ip), vehicle: saline with Tween-80
[12] = endpoint: mean survival time, dose: 400.0 mg/kg/injection, schedule: Q04DX002 (ip), vehicle: saline with Tween-80
[13] = endpoint: mean survival time, dose: 75.0 mg/kg/injection, schedule: Q01DX001 (ip), vehicle: saline
[14] = endpoint: mean survival time, dose: 150.0 mg/kg/injection, schedule: Q01DX001 (ip), vehicle: saline

Measured: T/C

NC(=O)Oc1cc(OC(N)=O)cc(N(CCCl)CCCl)c1
inactive: endpoint: mean survival time, dose: 12.5 mg/kg/injection, schedule: Q01DX009 (ip), vehicle: other 103 % of control | endpoint: mean survival time, dose: 25.0 mg/kg/injection, schedule: Q01DX001 (ip), vehicle: water 98 % of control | endpoint: mean survival time, dose: 25.0 mg/kg/injection, schedule: Q01DX009 (ip), vehicle: other 114 % of control | endpoint: mean survival time, dose: 50.0 mg/kg/injection, schedule: Q01DX001 (ip), vehicle: water 108 % of control | endpoint: mean survival time, dose: 50.0 mg/kg/injection, schedule: Q01DX009 (ip), vehicle: other 111 % of control | endpoint: mean survival time, dose: 100.0 mg/kg/injection, schedule: Q01DX001 (ip), vehicle: water 108 % of control | endpoint: mean survival time, dose: 100.0 mg/kg/injection, schedule: Q01DX009 (ip), vehicle: other 116 % of control | endpoint: mean survival time, dose: 200.0 mg/kg/injection, schedule: Q01DX001 (ip), vehicle: water 117 % of control | endpoint: mean survival time, dose: 200.0 mg/kg/injection, schedule: Q01DX009 (ip), vehicle: other 104 % of control | endpoint: mean survival time, dose: 400.0 mg/kg/injection, schedule: Q01DX001 (ip), vehicle: water 120 % of control

COc1cc2c(c(OC)c1O)-c1ccc(OC)c(=O)cc1[C@@H](NC(C)=O)CC2
inactive: endpoint: mean survival time, dose: 1.25 mg/kg/injection, schedule: Q01DX005 (ip), vehicle: Klucel (hydroxypropylcellulose) (HPC) 103 % of control | endpoint: mean survival time, dose: 2.5 mg/kg/injection, schedule: Q01DX005 (ip), vehicle: Klucel (hydroxypropylcellulose) (HPC) 104 % of control | endpoint: mean survival time, dose: 3.12 mg/kg/injection, schedule: Q01DX009 (ip), vehicle: saline 118 % of control | endpoint: mean survival time, dose: 5.0 mg/kg/injection, schedule: Q01DX005 (ip), vehicle: Klucel (hydroxypropylcellulose) (HPC) 110 % of control | endpoint: mean survival time, dose: 20.0 mg/kg/injection, schedule: Q01DX005 (ip), vehicle: Klucel (hydroxypropylcellulose) (HPC) 121 % of control | endpoint: mean survival time, dose: 40.0 mg/kg/injection, schedule: Q01DX005 (ip), vehicle: Klucel (hydroxypropylcellulose) (HPC) 110 % of control

C(#Cc1ccccc1)c1ccccc1.Cc1ccc([PH+](c2ccccc2)c2ccccc2)cc1.Cc1ccc([PH+](c2ccccc2)c2ccccc2)cc1.[Pt]
inactive: endpoint: median survival time, dose: 3.13 mg/kg/injection, schedule: Q04DX003 (ip), vehicle: distilled water + Tween-80 100 % of control | endpoint: median survival time, dose: 6.25 mg/kg/injection, schedule: Q04DX003 (ip), vehicle: distilled water + Tween-80 101 % of control | endpoint: median survival time, dose: 12.5 mg/kg/injection, schedule: Q04DX003 (ip), vehicle: distilled water + Tween-80 105 % of control | endpoint: median survival time, dose: 25.0 mg/kg/injection, schedule: Q04DX003 (ip), vehicle: distilled water + Tween-80 89 % of control | endpoint: median survival time, dose: 50.0 mg/kg/injection, schedule: Q04DX003 (ip), vehicle: distilled water + Tween-80 90 % of control | endpoint: median survival time, dose: 100.0 mg/kg/injection, schedule: Q04DX003 (ip), vehicle: distilled water + Tween-80 94 % of control

CCOC(=O)NC1=C(N2CC2)C(=O)C(NC(=O)OCC)=C(N2CC2)C1=O
inactive: endpoint: mean survival time, dose: 1.25 mg/kg/injection, schedule: Q01DX009 (oral), vehicle: other 87 % of control | endpoint: mean survival time, dose: 1.25 mg/kg/injection, schedule: Q01DX009 (oral), vehicle: saline 98 % of control | endpoint: mean survival time, dose: 2.5 mg/kg/injection, schedule: Q01DX009 (oral), vehicle: other 97 % of control | endpoint: mean survival time, dose: 2.5 mg/kg/injection, schedule: Q01DX009 (oral), vehicle: saline 94 % of control | endpoint: mean survival time, dose: 4.0 mg/kg/injection, schedule: Q01DX009 (sc), vehicle: other 93 % of control | endpoint: mean survival time, dose: 10.0 mg/kg/injection, schedule: Q01DX009 (oral), vehicle: other 95 % of control | endpoint: mean survival time, dose: 16.0 mg/kg/injection, schedule: Q04DX003 (ip), vehicle: other 90 % of control | endpoint: mean survival time, dose: 20.0 mg/kg/injection, schedule: Q01DX009 (oral), vehicle: other 87 % of control | endpoint: median survival time, dose: 0.25 mg/kg/injection, schedule: Q01DX009 (ip), vehicle: saline with Tween-80 97 % of control | endpoint: median survival time, dose: 0.5 mg/kg/injection, schedule: Q01DX009 (ip), vehicle: saline with Tween-80 110 % of control | endpoint: median survival time, dose: 1.0 mg/kg/injection, schedule: Q08DX002 (ip), vehicle: saline with Tween-80 110 % of control | endpoint: median survival time, dose: 4.0 mg/kg/injection, schedule: Q01DX009 (ip), vehicle: saline with Tween-80 90 % of control

C=CCOCC(O)CN(CCCC)CCCC (stereo not given)
inactive: endpoint: mean survival time, dose: 25.0 mg/kg/injection, schedule: Q04DX003 (ip), vehicle: saline with Tween-80 104 % of control | endpoint: mean survival time, dose: 50.0 mg/kg/injection, schedule: Q04DX003 (ip), vehicle: saline with Tween-80 106 % of control | [1] 90 % of control and 110 % of control

COC(=O)N/N=C\c1ccc(O)c(OC)c1
inactive: [2] 104 % of control | [3] 104 % of control | [4] 97 % of control

CC(C)(C)CC(C)(C)c1ccc(O)cc1O
inactive: [5] 105 % of control | [6] 103 % of control | [7] 101 % of control | [2] 94 % of control

CN(C)c1ccc(CN2CCCN(Cc3ccc(N(C)C)cc3)C2c2cc(Cl)ccc2O)cc1
inactive: [2] 86 % of control | [1] 98 % of control | [3] 93 % of control | [8] 92 % of control | [4] 86 % of control | [9] 92 % of control

Cc1cc(=O)c(C#N)c(-c2ccccc2)[nH]1
inactive: [10] 96 % of control | [11] 100 % of control | [12] 87 % of control

Cc1ncc(C[P+](c2ccccc2)(c2ccccc2)c2ccccc2)c2c1OC(C)(C)OC2
inactive: [13] 103 % of control | [14] 112 % of control

CC1(C)COC(C)(C(=O)O)OC1
inactive: [1] 98 % of control | [8] 98 % of control | [9] 96 % of control

C/C(=N/NC(N)=S)c1ccc(NC(=O)C(Cl)Cl)cc1
inactive: [13] 100 % of control | [14] 96 % of control

CCN1CCS(=O)(=O)C1=O
inactive: endpoint: mean survival time, dose: 75.0 mg/kg/injection, schedule: Q01DX001 (ip), vehicle: other 108 % of control | endpoint: mean survival time, dose: 150.0 mg/kg/injection, schedule: Q01DX001 (ip), vehicle: other 115 % of control

CC1(C)OC1CS(=O)c1ccccc1 (stereo not given)
inactive: endpoint: mean survival time, dose: 12.5 mg/kg/injection, schedule: Q01DX009 (ip), vehicle: saline with Tween-80 95 % of control | endpoint: mean survival time, dose: 12.5 mg/kg/injection, schedule: Q01DX009 (ip), vehicle: saline 98 % of control | [5] 98 % of control | endpoint: mean survival time, dose: 25.0 mg/kg/injection, schedule: Q01DX009 (ip), vehicle: saline 93 % of control | [6] 95 % of control | endpoint: mean survival time, dose: 50.0 mg/kg/injection, schedule: Q01DX009 (ip), vehicle: saline 101 % of control | [2] 95 % of control | endpoint: mean survival time, dose: 100.0 mg/kg/injection, schedule: Q01DX009 (ip), vehicle: saline 95 % of control | [3] 98 % of control | endpoint: mean survival time, dose: 200.0 mg/kg/injection, schedule: Q01DX009 (ip), vehicle: saline 105 % of control | [4] 93 % of control | endpoint: mean survival time, dose: 400.0 mg/kg/injection, schedule: Q01DX009 (ip), vehicle: saline 98 % of control

CCCCCCCCCC(=O)NC(=S)Nc1cccc(C(C)=O)c1
inactive: [7] 89 % of control | [2] 87 % of control and 95 % of control | [10] 88 % of control and 104 % of control | [1] 93 % of control | endpoint: mean survival time, dose: 200.0 mg/kg/injection, schedule: Q01DX001 (ip), vehicle: saline with Tween-80 88 % of control | [3] 91 % of control and 109 % of control | [11] 92 % of control and 96 % of control | [8] 91 % of control | [4] 95 % of control | [12] 88 % of control and 90 % of control | [9] 95 % of control
